The values below come from patent US6326492A, “Heterocyclic protease inhibitors” (3-Dimensional Pharmaceuticals, Inc., priority 2000, dated 2001).

The target of this assay is T1, Human α-thrombin (Homo sapiens, UniProt P00734).
T1 construct: Human α-thrombin, was obtained from Enzyme Research Laboratories; purchased Enzyme Research Laboratories (South Bend, Ind.)
The assay can be described thus: In vitro inhibition of purified thrombin (Ki determination, p-nitroanilide substrate hydrolysis). The assay is classed as biochemical. Conditions: purified human α-thrombin 0.5 nM, substrate N-succinyl-Ala-Ala-Pro-Arg-p-nitroanilide, 50 mM HEPES, 200 mM NaCl, pH 7.5, 37° C.; read-out: thrombin inhibitory activity. The source says: Reagents: All buffer salts were obtained from Sigma Chemical Company (St. Louis, Mo.), and were of the highest purity available. The enzyme substrates, N-benzoyl-Phe-Val-Arg-p-nitroanilide (Sigma B7632), N-benzoyl-Ile-Glu-Gly-Arg-p-nitroanilide hydrochloride (Sigma B2291), N-p-Tosyl-Gly-Pro-Lys-p-nitroanilide (Sigma T6140), N-succinyl-Ala-Ala-Pro-Phe-p-nitroanilide (Sigma S7388) and N-CBZ-Val-Gly-Arg-p-nitroanilide (Sigma C7271) were obtained from Sigma. N-succinyl-Ala-Ala-Pro-Arg-p-nitroanilide (BACHEM L-1720) and N-succinyl-Ala-Ala-Pro-Val-p-nitroanilide (BACHEM L-1770) were obtained from BACHEM (King of Prussia, Pa.). […]
Ki Determinations: All assays are based on the ability of the test compound to inhibit the enzyme catalyzed hydrolysis of a peptide p-nitroanilide substrate. […] In general, substrate concentrations are lower than the experimentally determined value for Km. […]
In a typical Ki determination, into each well of a 96 well plate is pipetted […] of substrate solution, […] of test compound solution, and the plate allowed to thermally equilibrate at 37° C. in a Molecular Devices plate reader for>15 minutes. Reactions were initiated by the addition of a […] aliquot of enzyme and the absorbance increase at 405 nm is recorded for 15 minutes. […] The data are fit to a linear regression, and the value of the slope of the line calculated. […]

Molecules are shown by their SMILES. Counter-ions that a name gives are not always drawn.

For `Cc1cccc(S(=O)(=O)Nc2ccc(C)n(CC(=O)NC3CCN(C(=N)N)OC3)c2=O)c1` (centres unmarked) [Example 2, 5-[2-(6-Methyl-3-{[(3-methylphenyl)sulfonyl]amino}-2-oxohydropyridyl)acetylamino]-1,2-oxazaperhydroine-2-carboxamidine trifluoroacetate], the Ki worked out at 0.38 nM.
Next, `Cc1cccc(S(=O)(=O)Nc2ccc(C)n(CC(=O)NCC3CNC(=N)NO3)c2=O)c1` (centres unmarked) [Example 1, N-[(3-Imino(1,2,4-oxadiazaperhydroin-6-yl))methyl]-2-(6methyl-3-{[(3methylphenyl)sulfonyl]amino}-2-oxohydropyridyl)acetamide trifluoroacetate]: 26 nM.
